Experimental data published in patent publication US20030007949A1, “Adhesive treatment for tinea corporis” (CLOSURE MEDICAL CORPORATION, priority 2001, published 2003).

Test: Observation of haloprogin / 2-octyl cyanoacrylate monomer composition after preparation
Type: physicochemical
Conditions: 30 mg haloprogin in 2 mL 2-octyl cyanoacrylate monomer, observed at about one minute and at least twenty-four hours after preparation
Procedure: A 2-octyl cyanoacrylate monomer composition is prepared by adding 30 mg of haloprogin, an anti-fungal agent, to 2 mL of 2-octyl cyanoacrylate monomer. The mixture is sealed in a glass vial and stirred. The characteristics of the composition are observed at about one minute after preparation and later at least twenty-four hours after preparation.

Question: Which “premature polymerization caused in the monomer” value does the source give for `Clc1cc(Cl)c(OCC#CI)cc1Cl` [haloprogin] here?
Answer: does not cause premature polymerization

Question: And the “solubility of haloprogin in the monomer” value (sealed glass vial, stirred)?
Answer: soluble
